What was measured:
Assay in all cases: Kinase selectivity, scanMAX Kinase assay panel (DiscoverX), % control at 1 uM
Assay type in all cases: binding
[1] = target: T1, scanMAX Kinase assay panel (Homo sapiens, UniProt P11362); conditions: FGFR1; 1 uM; read-out: Percent Control (%)
T1 construct: purchased DiscoverX
How it was run: (§1)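 Compounds were tested at 1 uM in DMSO against each enzyme in the panel. Percent control was calculated as (compound − positive control)/(negative control − positive control) × 100, and a compound was scored active on a kinase when this value fell below 35.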

[2] = target: T2, scanMAX Kinase assay panel (Homo sapiens, UniProt Q15831); conditions: LKB1; 1 uM; read-out: Percent Control (%)
T2 construct: purchased DiscoverX
T2 sequence (Q15831 1-433): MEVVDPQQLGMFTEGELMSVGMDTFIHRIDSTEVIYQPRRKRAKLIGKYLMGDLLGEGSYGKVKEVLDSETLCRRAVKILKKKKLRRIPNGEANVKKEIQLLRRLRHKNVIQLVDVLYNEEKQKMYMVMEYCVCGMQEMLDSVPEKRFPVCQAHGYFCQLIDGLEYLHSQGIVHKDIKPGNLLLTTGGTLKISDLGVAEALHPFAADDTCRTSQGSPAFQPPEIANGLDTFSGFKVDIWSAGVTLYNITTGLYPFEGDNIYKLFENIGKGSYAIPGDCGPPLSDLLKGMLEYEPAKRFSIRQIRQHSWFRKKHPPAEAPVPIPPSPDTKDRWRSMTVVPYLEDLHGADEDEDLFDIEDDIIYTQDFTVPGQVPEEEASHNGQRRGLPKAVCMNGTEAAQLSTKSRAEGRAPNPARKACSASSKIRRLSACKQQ
How it was run: as §1

[3] = target: T3, scanMAX Kinase assay panel (Homo sapiens, UniProt O96017); conditions: CHEK2; 1 uM; read-out: Percent Control (%)
T3 construct: purchased DiscoverX
T3 sequence (O96017 whole entry): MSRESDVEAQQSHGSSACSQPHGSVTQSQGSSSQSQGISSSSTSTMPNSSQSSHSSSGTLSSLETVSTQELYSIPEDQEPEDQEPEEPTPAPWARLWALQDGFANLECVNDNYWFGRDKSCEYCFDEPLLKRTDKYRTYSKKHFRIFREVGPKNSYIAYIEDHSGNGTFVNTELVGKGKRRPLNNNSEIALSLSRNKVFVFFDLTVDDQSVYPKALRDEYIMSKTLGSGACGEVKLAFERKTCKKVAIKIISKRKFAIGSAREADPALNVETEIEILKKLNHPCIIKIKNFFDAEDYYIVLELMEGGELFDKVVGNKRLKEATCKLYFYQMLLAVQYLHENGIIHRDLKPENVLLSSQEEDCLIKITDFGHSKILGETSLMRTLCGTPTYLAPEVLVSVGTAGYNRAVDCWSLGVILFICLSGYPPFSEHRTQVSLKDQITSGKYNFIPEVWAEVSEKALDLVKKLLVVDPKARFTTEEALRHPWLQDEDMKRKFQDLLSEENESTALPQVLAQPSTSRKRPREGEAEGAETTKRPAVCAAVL
How it was run: as §1

[4] = target: T4, scanMAX Kinase assay panel (Homo sapiens, UniProt Q16512); conditions: PKN1; 1 uM; read-out: Percent Control (%)
T4 construct: purchased DiscoverX
T4 sequence (Q16512 whole entry): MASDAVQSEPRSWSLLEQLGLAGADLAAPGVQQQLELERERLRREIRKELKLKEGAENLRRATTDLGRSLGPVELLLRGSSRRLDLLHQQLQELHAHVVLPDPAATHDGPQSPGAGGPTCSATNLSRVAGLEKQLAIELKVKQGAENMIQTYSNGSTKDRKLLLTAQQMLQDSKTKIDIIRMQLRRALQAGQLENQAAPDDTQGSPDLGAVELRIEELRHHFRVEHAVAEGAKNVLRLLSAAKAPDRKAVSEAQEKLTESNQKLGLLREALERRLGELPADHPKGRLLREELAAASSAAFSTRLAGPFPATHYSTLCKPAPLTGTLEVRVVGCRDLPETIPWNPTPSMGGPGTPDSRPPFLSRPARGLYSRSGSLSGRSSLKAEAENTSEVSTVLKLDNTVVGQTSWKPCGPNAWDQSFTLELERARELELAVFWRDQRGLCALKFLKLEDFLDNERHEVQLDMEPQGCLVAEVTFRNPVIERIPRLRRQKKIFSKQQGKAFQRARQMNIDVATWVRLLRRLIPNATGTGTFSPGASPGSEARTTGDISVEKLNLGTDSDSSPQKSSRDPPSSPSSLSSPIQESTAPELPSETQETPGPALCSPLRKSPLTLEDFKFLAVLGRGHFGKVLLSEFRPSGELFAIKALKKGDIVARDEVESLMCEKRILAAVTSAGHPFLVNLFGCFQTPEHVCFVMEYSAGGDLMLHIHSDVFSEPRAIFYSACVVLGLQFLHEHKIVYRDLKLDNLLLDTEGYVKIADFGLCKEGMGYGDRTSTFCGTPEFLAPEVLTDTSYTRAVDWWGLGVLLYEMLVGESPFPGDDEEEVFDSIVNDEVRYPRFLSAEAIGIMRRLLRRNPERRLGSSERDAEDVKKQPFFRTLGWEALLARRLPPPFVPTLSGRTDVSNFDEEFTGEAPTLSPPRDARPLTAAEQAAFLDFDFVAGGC
How it was run: as §1

[5] = target: T5, scanMAX Kinase assay panel (Homo sapiens, UniProt Q14164); conditions: IKK-epsilon; 1 uM; read-out: Percent Control (%)
T5 construct: purchased DiscoverX
T5 sequence (Q14164 1-716): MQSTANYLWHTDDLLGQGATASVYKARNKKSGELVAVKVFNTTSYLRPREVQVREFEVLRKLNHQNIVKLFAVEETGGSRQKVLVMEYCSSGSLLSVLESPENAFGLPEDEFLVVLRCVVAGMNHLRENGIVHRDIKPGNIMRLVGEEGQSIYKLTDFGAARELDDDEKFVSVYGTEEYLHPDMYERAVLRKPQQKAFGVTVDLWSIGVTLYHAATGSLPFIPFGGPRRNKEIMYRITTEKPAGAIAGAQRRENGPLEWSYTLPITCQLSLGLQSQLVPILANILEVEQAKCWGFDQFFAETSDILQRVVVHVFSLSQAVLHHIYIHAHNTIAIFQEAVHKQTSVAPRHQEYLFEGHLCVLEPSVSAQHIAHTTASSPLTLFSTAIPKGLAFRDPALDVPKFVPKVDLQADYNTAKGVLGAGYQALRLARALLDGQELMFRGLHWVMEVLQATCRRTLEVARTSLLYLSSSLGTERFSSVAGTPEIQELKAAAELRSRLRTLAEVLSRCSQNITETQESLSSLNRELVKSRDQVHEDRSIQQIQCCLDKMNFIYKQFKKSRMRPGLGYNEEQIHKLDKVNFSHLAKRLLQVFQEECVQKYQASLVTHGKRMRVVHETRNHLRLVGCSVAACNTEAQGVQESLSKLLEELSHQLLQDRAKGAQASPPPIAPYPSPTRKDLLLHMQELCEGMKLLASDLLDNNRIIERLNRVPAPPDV
How it was run: as §1

[6] = target: T6, scanMAX Kinase assay panel (Homo sapiens, UniProt O00750); conditions: PIK3C2B; 1 uM; read-out: Percent Control (%)
T6 construct: purchased DiscoverX
T6 sequence (O00750 whole entry): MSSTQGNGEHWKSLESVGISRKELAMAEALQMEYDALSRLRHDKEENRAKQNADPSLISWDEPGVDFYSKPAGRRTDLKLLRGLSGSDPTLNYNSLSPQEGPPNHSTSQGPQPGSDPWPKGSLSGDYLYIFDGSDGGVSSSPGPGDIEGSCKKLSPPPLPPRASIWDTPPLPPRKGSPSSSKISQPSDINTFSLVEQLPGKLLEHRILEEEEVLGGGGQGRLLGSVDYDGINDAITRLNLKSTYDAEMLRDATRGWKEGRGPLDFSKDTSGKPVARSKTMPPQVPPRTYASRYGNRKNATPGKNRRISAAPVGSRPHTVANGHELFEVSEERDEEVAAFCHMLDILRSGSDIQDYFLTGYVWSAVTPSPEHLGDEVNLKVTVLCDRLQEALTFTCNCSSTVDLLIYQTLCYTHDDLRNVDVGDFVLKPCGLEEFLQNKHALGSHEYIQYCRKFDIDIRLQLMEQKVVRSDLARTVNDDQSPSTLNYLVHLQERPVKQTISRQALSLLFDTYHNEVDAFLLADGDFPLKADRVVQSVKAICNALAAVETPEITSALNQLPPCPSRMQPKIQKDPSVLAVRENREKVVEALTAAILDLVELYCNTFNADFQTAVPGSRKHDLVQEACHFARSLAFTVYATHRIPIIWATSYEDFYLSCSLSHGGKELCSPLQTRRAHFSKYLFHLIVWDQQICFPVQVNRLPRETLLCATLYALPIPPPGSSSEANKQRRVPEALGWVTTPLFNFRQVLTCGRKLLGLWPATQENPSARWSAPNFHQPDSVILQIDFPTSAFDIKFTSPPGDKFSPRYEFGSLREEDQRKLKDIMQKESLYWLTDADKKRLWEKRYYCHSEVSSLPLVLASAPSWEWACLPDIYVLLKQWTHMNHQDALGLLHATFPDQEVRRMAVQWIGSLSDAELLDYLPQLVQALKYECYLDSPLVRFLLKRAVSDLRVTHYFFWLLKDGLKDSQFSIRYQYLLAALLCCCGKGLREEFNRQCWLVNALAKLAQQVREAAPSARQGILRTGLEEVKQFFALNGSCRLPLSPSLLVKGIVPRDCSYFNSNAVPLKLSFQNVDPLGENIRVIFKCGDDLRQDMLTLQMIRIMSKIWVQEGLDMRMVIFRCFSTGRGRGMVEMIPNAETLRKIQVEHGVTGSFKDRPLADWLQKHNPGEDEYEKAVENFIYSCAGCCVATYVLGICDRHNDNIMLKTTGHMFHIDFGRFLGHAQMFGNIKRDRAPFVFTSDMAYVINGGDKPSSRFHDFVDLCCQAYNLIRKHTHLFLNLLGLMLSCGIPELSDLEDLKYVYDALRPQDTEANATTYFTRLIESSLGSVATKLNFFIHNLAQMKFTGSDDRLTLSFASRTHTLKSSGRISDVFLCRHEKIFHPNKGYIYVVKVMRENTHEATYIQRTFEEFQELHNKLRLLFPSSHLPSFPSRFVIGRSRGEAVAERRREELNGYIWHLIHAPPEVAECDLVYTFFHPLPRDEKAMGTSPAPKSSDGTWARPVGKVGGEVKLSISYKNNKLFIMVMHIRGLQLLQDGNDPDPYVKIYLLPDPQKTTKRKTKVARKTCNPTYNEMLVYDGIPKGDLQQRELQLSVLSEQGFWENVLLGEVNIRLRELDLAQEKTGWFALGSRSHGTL
How it was run: as §1

[7] = target: T7, scanMAX Kinase assay panel (Homo sapiens, UniProt Q13557); conditions: CAMK2D; 1 uM; read-out: Percent Control (%)
T7 construct: purchased DiscoverX
T7 sequence (Q13557 whole entry): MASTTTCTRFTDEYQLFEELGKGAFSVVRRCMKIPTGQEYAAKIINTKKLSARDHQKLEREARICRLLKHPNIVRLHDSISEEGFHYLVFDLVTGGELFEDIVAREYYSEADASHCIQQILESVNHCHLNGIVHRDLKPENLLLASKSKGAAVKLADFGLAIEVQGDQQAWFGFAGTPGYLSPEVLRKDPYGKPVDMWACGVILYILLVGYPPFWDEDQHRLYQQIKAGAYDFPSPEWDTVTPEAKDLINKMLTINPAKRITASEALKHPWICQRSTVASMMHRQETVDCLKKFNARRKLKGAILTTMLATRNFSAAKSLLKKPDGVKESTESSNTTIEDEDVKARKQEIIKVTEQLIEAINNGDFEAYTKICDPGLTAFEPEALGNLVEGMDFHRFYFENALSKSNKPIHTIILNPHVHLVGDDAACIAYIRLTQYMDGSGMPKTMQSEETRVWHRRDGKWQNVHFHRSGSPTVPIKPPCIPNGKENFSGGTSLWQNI
How it was run: as §1

[8] = target: T8, scanMAX Kinase assay panel (Homo sapiens, UniProt Q02156); conditions: PRKCE; 1 uM; read-out: Percent Control (%)
T8 construct: purchased DiscoverX
T8 sequence (Q02156 1-737): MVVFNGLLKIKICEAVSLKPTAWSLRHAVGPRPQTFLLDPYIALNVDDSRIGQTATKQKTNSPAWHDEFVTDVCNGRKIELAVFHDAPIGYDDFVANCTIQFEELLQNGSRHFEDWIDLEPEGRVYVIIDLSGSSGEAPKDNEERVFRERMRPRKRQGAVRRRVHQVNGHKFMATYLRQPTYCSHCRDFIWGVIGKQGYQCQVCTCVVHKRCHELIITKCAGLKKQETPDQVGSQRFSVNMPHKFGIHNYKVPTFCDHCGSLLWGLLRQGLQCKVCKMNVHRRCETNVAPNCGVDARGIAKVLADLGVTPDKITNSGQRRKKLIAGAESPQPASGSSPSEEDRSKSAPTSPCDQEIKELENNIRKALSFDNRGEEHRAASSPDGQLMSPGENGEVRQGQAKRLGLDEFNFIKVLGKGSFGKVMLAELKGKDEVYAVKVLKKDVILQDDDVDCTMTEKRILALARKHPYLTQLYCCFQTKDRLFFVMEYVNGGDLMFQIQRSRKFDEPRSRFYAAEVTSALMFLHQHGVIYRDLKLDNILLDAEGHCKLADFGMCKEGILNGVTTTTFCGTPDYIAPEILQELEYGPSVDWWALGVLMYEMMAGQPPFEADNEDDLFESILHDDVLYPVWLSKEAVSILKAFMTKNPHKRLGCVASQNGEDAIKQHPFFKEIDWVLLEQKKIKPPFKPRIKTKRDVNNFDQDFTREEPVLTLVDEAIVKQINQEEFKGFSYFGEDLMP
How it was run: as §1

[9] = target: T9, scanMAX Kinase assay panel (Homo sapiens, UniProt Q9NQU5); conditions: PAK6; 1 uM; read-out: Percent Control (%)
T9 construct: purchased DiscoverX
How it was run: as §1

[10] = target: T10, scanMAX Kinase assay panel (Homo sapiens, UniProt Q08345); conditions: DDR1; 1 uM; read-out: Percent Control (%)
T10 construct: purchased DiscoverX
T10 sequence (Q08345 19-913): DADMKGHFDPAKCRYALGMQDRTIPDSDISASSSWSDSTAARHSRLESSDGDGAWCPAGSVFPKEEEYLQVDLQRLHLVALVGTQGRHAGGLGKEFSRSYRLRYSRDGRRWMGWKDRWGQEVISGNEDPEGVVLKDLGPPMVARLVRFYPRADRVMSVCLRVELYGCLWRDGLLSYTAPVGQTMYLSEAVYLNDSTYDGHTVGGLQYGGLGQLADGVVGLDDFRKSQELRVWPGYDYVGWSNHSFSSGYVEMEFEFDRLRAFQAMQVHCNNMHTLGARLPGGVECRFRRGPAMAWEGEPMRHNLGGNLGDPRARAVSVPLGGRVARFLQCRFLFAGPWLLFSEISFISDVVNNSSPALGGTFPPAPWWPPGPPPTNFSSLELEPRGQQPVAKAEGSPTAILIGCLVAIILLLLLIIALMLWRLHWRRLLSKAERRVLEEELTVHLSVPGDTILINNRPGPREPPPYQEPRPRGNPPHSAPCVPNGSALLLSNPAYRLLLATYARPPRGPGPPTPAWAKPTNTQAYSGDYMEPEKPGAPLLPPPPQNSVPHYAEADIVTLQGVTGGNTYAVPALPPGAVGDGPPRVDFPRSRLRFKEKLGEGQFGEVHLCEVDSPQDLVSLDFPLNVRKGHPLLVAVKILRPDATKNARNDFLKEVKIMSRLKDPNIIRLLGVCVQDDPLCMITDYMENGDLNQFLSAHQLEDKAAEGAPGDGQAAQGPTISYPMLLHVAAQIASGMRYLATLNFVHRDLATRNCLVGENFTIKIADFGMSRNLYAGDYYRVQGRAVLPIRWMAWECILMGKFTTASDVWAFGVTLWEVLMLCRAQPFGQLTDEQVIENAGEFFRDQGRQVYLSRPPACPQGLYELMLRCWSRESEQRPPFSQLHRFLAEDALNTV
How it was run: as §1

SMILES	remaining binding at 1 µM [1] [%]	remaining binding at 1 µM [2] [%]	remaining binding at 1 µM [3] [%]	remaining binding at 1 µM [4] [%]	remaining binding at 1 µM [5] [%]	remaining binding at 1 µM [6] [%]	remaining binding at 1 µM [7] [%]	remaining binding at 1 µM [8] [%]	remaining binding at 1 µM [9] [%]	remaining binding at 1 µM [10] [%]
Cc1ccc(NC(=O)C2(C(=O)Nc3ccc(F)cc3)CC2)cc1C#Cc1cnc2c(Nc3cnn(C(C)C)c3)cccn12 [Example 78]	100	100	91	83	100	100	100	90	97	1
Cc1cn(-c2cc(NC(=O)c3ccc(C)c(C#Cc4cnc5c(Nc6cnn(C)c6)cccn45)c3)cc(C(F)(F)F)c2)cn1 [Example 12, 4-methyl-N-(3-(4-methyl-1H-imidazol-1-yl)-5-(trifluoromethyl)phenyl)-3-((8-((1-methyl-1H-pyrazol-4-yl)amino)imidazo[1,2-a]pyridin-3-yl)ethynyl)benzamide]	6	85	84	82	100	91	78	71	84	7
Cc1ccc(C(=O)Nc2ccc(CN3CCN(C)CC3)c(C(F)(F)F)c2)cc1C#Cc1cnc2c(Nc3cnn(C)c3)cccn12 [Example 1, 4-methyl-3-((8-((1-methyl-1H-pyrazol-4-yl)amino)imidazo[1,2-a]pyridin-3-yl)ethynyl)-N-(4-((4-methylpiperazin-1-yl)methyl)-3-(trifluoromethyl)phenyl)benzamide]	0	98	34	78	66	100	82	67	66	0

— US10870647B2, “Imidazopyridine derivative, method for preparing same, and pharmaceutical composition containing same as active ingredient for preventing or treating cancer” (DAEGU-GYEONGBUK MEDICAL INNOVATION FOUNDATION, priority 2016, dated 2020)
